Laboratory results as given in US9593108B2, “Compounds and methods for antiviral treatment” (PTC Therapeutics, Inc., priority 2009, dated 2017).

Each compound was assayed on HCV replicon RNA (GenBank Accession No. AJ242654) (assay: HCV Replicon Assay (replicon RNA reduction and/or Fluc reporter signal)). Settings: Hepatitis C virus, 72 h, replicon-containing cells cultured with test compound for up to 3 days.
Format: cell-based, Hepatitis C virus
Text: The lack of reliable and readily accessible cell-culture and small animal models permissive for HCV replication has limited the development of new anti-HCV agents. Self-replicating subgenomic HCV systems, termed HCV replicons, have been described and have been widely used to assess the efficacy of anti-HCV inhibitors (see Blight K J, et al., 2000, Efficient initiation of HCV RNA replication in cell culture. Science 290:1972-1974; Blight K J, et al., 2002, Highly permissive cell lines for subgenomic and genomic hepatitis C virus RNA replication. J Virol 76:13001-13014; Ikeda M, et al., 2002. Selectable subgenomic and genome-length dicistronic RNAs derived from an infectious molecular clone of the HCV-N strain of hepatitis C virus replicate efficiently in cultured Huh7 cells. J Virol 76:2997-3006; Lohmann V, et al., 1999, Replication of subgenomic hepatitis C virus RNAs in a hepatoma cell line. Science 285:110-113; Pietschmann T, et al., 2002, Persistent and transient replication of full-length hepatitis C virus genomes in cell culture. J Virol 76:4008-4021; and, Pietschmann T, et al., 2001, Characterization of cell lines carrying self-replicating hepatitis C virus RNAs. J Virol 75:1252-1264).
As described in U.S. Pat. No. 6,630,343, HCV inhibitors are analyzed in the bicistronic replicon by quantitating replicon RNA (GenBank Accession No. AJ242654) reduction and/or the Fluc reporter signal. Replicon-containing cells may be cultured with a test compound of the present invention for up to 3 days. Interferon (IFN) is used as a positive control. In general, the replicon IC50 values shown in Table 1 represent IC50 values determined by replicon RNA reduction.
With `C[C@H](NS(=O)(=O)c1ccc(-c2c(C#N)c3ccc(C4CC4)nc3n2C2CCC2)cc1)C(F)(F)F` [Cpd 149, 4-(3-cyano-1-cyclobutyl-6-cyclopropyl-1H-pyrrolo[2,3-b]pyridin-2-yl)-N-[(2S)-1,1,1-trifluoropropan-2-yl]benzenesulfonamide] the IC50 was less than 500 nM. `CN(Cc1ccccc1)c1cnc2c(c1)c(C#N)c(-c1ccc(S(=O)(=O)NC(C)(C)C(F)(F)F)cc1)n2C1CCC1` [Cpd 353, 4-{5-[benzyl(methyl)amino]-3-cyano-1-cyclobutyl-1H-pyrrolo[2,3-b]pyridin-2-yl}-N-(1,1,1-trifluoro-2-methylpropan-2-yl)benzenesulfonamide] gave an IC50 of 2000 to 5000 nM. With `CC(C)(NS(=O)(=O)c1ccc(-c2c(C(N)=O)c3cc(C4CC4)cnc3n2C2CCC2)cc1)C(F)(F)F` [Cpd 372, 1-cyclobutyl-5-cyclopropyl-2-{4-[(1,1,1-trifluoro-2-methylpropan-2-yl)sulfamoyl]phenyl}-1H-pyrrolo[2,3-b]pyridine-3-carboxamide] the IC50 was less than 500 nM. For `COc1ccc2c(n1)c(C#N)c(-c1ccc(S(=O)(=O)N[C@@H](C)C(F)(F)F)cn1)n2C1CCC1` [Cpd 20, 6-(3-cyano-1-cyclobutyl-5-methoxy-1H-pyrrolo[3,2-b]pyridin-2-yl)-N-[(2S)-1,1,1-trifluoropropan-2-yl]pyridine-3-sulfonamide], the IC50 was 500 to 2000 nM. `CSc1cnc2c(c1)c(C(=O)O)c(-c1ccc(S(=O)(=O)N[C@@H](C)C(F)(F)F)cn1)n2C1CCC1` [Cpd 386, 1-cyclobutyl-5-(methylsulfanyl)-2-(5-{[(2S)-1,1,1-trifluoropropan-2-yl]sulfamoyl}pyridin-2-yl)-1H-pyrrolo[2,3-b]pyridine-3-carboxylic acid] gave an IC50 of 500 to 2000 nM. With `CSc1cnc2c(c1)c(C(=O)O)c(-c1ccc(S(=O)(=O)NC3(C(F)(F)F)CC3)cn1)n2C1CCCC1` [Cpd 330, 1-cyclopentyl-5-(methylsulfanyl)-2-(5-{[1-(trifluoromethyl)cyclopropyl]sulfamoyl}pyridin-2-yl)-1H-pyrrolo[2,3-b]pyridine-3-carboxylic acid] the IC50 was 2000 to 5000 nM. `CSc1cnc2c(c1)c(C(=O)O)c(-c1ccc(S(=O)(=O)NC3(C(F)(F)F)CC3)cc1)n2C1CCC1` [Cpd 390, 1-cyclobutyl-5-(methylsulfanyl)-2-(4-{[1-(trifluoromethyl)cyclopropyl]sulfamoyl}phenyl)-1H-pyrrolo[2,3-b]pyridine-3-carboxylic acid] showed an IC50 of 500 to 2000 nM. `COc1cnc2c(c1)c(C#N)c(-c1ccc(S(=O)(=O)N[C@@H](C)C(F)(F)F)cn1)n2C1CCC1` [Cpd 22, 6-(3-cyano-1-cyclobutyl-5-methoxy-1H-pyrrolo[2,3-b]pyridin-2-yl)-N-[(2S)-1,1,1-trifluoropropan-2-yl]pyridine-3-sulfonamide] was tested, and the IC50 was 500 to 2000 nM. For `N#Cc1c(-c2ccc(S(=O)(=O)NC3(C(F)(F)F)CC3)cc2)n(C2CCC2)c2ncc(C(F)(F)F)cc12` [Cpd 397, 4-[3-cyano-1-cyclobutyl-5-(trifluoromethyl)-1H-pyrrolo[2,3-b]pyridin-2-yl]-N-[1-(trifluoromethyl)cyclopropyl]benzenesulfonamide], the IC50 was less than 500 nM. For `COc1cnc2c(c1)c(C#N)c(-c1ccc(S(=O)(=O)N[C@H](C)C(F)(F)F)cn1)n2C1CCC1` [Cpd 48, 6-(3-cyano-1-cyclobutyl-5-methoxy-1H-pyrrolo[2,3-b]pyridin-2-yl)-N-[(2R)-1,1,1-trifluoropropan-2-yl]pyridine-3-sulfonamide], the IC50 was less than 500 nM. `CCc1cnc2c(c1)c(C#N)c(-c1ccc(S(=O)(=O)NC3CC3)cn1)n2C1CCC1` [Cpd 193, 6-(3-cyano-1-cyclobutyl-5-ethyl-1H-pyrrolo[2,3-b]pyridin-2-yl)-N-cyclopropylpyridine-3-sulfonamide] gave an IC50 of less than 500 nM. For `C[C@@H](NS(=O)(=O)c1cnc(-c2c(C#N)c3cc(C4CC4)cnc3n2C2CCC2)nc1)C(F)(F)F` [Cpd 120, 2-(3-cyano-1-cyclobutyl-5-cyclopropyl-1H-pyrrolo[2,3-b]pyridin-2-yl)-N-[(2R)-1,1,1-trifluoropropan-2-yl]pyrimidine-5-sulfonamide], the IC50 was less than 500 nM. `Cc1cnc2c(c1)c(C(N)=O)c(-c1ccc(S(=O)(=O)NC3(C(F)(F)F)CC3)cc1)n2C1CCC1` [Cpd 342, 1-cyclobutyl-5-methyl-2-(4-{[1-(trifluoromethyl)cyclopropyl]sulfamoyl}phenyl)-1H-pyrrolo[2,3-b]pyridine-3-carboxamide] was tested, and the IC50 was less than 500 nM. For `CC1(NS(=O)(=O)c2ccc(-c3c(C#N)c4cc(Cl)cnc4n3C3CCC3)cc2)CC1` [Cpd 284, 4-(5-chloro-3-cyano-1-cyclobutyl-1H-pyrrolo[2,3-b]pyridin-2-yl)-N-(1-methylcyclopropyl)benzenesulfonamide], the IC50 was less than 500 nM. Work on `CCc1cnc2c(c1)c(C#N)c(-c1ncc(S(=O)(=O)NC3(C)CC3)cn1)n2C1CCC1` [Cpd 189, 2-(3-cyano-1-cyclobutyl-5-ethyl-1H-pyrrolo[2,3-b]pyridin-2-yl)-N-(1-methylcyclopropyl)pyrimidine-5-sulfonamide] yielded an IC50 of less than 500 nM. In the case of `CC(C)(NS(=O)(=O)c1ccc(-c2c(C(=O)O)c3cc(Cl)cnc3n2C2CCC2)nc1)C(F)(F)F` [Cpd 331, 5-chloro-1-cyclobutyl-2-{5-[(1,1,1-trifluoro-2-methylpropan-2-yl)sulfamoyl]pyridin-2-yl}-1H-pyrrolo[2,3-b]pyridine-3-carboxylic acid], the IC50 is reported as 500 to 2000 nM. `CC(C)(C)S(=O)(=O)Nc1ccc(-c2c(C#N)c3cc(C(F)(F)F)cnc3n2C2CC2)cc1` [Cpd 362, N-{4-[3-cyano-1-cyclopropyl-5-(trifluoromethyl)-1H-pyrrolo[2,3-b]pyridin-2-yl]phenyl}-2-methylpropane-2-sulfonamide] showed an IC50 of 500 to 2000 nM. For `CCc1cnc2c(c1)c(C#N)c(-c1ccc(S(=O)(=O)N[C@@H](C)C(F)(F)F)cn1)n2C1CCCC1` [Cpd 252, 6-(3-cyano-1-cyclopentyl-5-ethyl-1H-pyrrolo[2,3-b]pyridin-2-yl)-N-[(2S)-1,1,1-trifluoropropan-2-yl]pyridine-3-sulfonamide], the IC50 was less than 500 nM. `CCc1cnc2c(c1)c(C#N)c(-c1ccc(S(=O)(=O)NC3(C)CC3)cn1)n2C1CCC1` [Cpd 188, 6-(3-cyano-1-cyclobutyl-5-ethyl-1H-pyrrolo[2,3-b]pyridin-2-yl)-N-(1-methylcyclopropyl)pyridine-3-sulfonamide] was tested, and the IC50 was less than 500 nM. Compound `CC(C)(C)S(=O)(=O)Nc1ccc(-c2c(C(N)=O)c3cc(C(F)(F)F)cnc3n2C2CCCCC2)cc1` [Cpd 445, 2-{4-[(tert-butylsulfonyl)amino]phenyl}-1-cyclohexyl-5-(trifluoromethyl)-1H-pyrrolo[2,3-b]pyridine-3-carboxamide] has an IC50 of less than 500 nM. Compound `CCc1cnc2c(c1)c(C#N)c(-c1ccc(S(=O)(=O)NC(C)(C)C)cn1)n2C1CCC1` [Cpd 186, N-tert-butyl-6-(3-cyano-1-cyclobutyl-5-ethyl-1H-pyrrolo[2,3-b]pyridin-2-yl)pyridine-3-sulfonamide] has an IC50 of less than 500 nM. `CC(C)(C)NS(=O)(=O)c1ccc(-c2c(C#N)c3cc(F)cnc3n2C2CCC2)cc1` [Cpd 369, N-tert-butyl-4-(3-cyano-1-cyclobutyl-5-fluoro-1H-pyrrolo[2,3-b]pyridin-2-yl)benzenesulfonamide] showed an IC50 of 500 to 2000 nM. With `CCc1cnc2c(c1)c(C(N)=O)c(-c1ccc(S(=O)(=O)NC(C)(C)C)cc1)n2C1CCC1` [Cpd 381, 2-[4-(tert-butylsulfamoyl)phenyl]-1-cyclobutyl-5-ethyl-1H-pyrrolo[2,3-b]pyridine-3-carboxamide] the IC50 was less than 500 nM.
